Assay results from patent US11744816B2, “Fixed dose combinations and formulations comprising ETC1002 and ezetimibe and methods of treating or reducing the risk of cardiovascular disease” (Esperion Therapeutics, Inc., priority 2015, dated 2023).
Entries after “also recorded” stand apart in the source; their conditions may differ.

How the values were obtained:
[1] = tested on: hypercholesterolemic patients; test: Phase 2b double-blind trial: percent changes from baseline to week 12 in lipids and CRP; type: in vivo, human; details: for Percent change from baseline to week 12 in Apolipoprotein A-I / Percent change from baseline to week 12 in Apolipoprotein B / Percent change from baseline to week 12 in HDL particle number / Percent change from baseline to week 12 in HDL-C / Percent change from baseline to week 12 in LDL particle number / Percent change from baseline to week 12 in LDL-C / Percent change from baseline to week 12 in Non-HDL-C / Percent change from baseline to week 12 in Total cholesterol / Percent change from baseline to week 12 in VLDL particle number: 12 weeks, mITT; for Percent change from baseline to week 12 in Apolipoprotein A-I / Percent change from baseline to week 12 in Apolipoprotein B / Percent change from baseline to week 12 in HDL particle number / Percent change from baseline to week 12 in HDL-C / Percent change from baseline to week 12 in LDL particle number / Percent change from baseline to week 12 in LDL-C / Percent change from baseline to week 12 in Non-HDL-C / Percent change from baseline to week 12 in Total cholesterol: LS mean ± SE; for Percent change from baseline to week 12 in VLDL particle number: median (interquartile range)
Procedure: LDL-C was calculated using the Friedewald equation.
The primary endpoint was the percent change from baseline to week 12 in calculated LDL-C in patients treated with ETC-1002 monotherapy versus those treated with EZE alone. Secondary endpoints included the dose-response relationship between ETC-1002 and the percent change in LDL-C from baseline to week 12, the percent change in LDL-C from baseline to week 12 in patients treated with ETC-1002 plus EZE versus those treated with EZE alone, and the percent change from baseline to week 12 for all treatment groups in LDL particle number, apolipoprotein B, total cholesterol, non-high-density lipoprotein cholesterol (non-HDL-C), HDL-C, HDL particle number, apolipoprotein A-I, triglycerides, very-low-density lipoprotein (VLDL) particle number, and high-sensitivity C-reactive protein (CRP). Lipoprotein particle number was measured using nuclear magnetic resonance […].
An analysis of covariance was used to compare each ETC-1002 treatment group with EZE monotherapy for each of the efficacy endpoints. The primary model included the effects of treatment and statin intolerance and the baseline value as a covariate. Baseline was defined as the mean of values from weeks −1 and 0 for LDL-C, non-HDL-C, total cholesterol, HDL-C, and triglycerides. For all other lipid and biomarker measures, baseline was defined as the last value before the first dose of study drug. Missing values at week 12 were imputed using the last-observation-carried-forward procedure. When LDL-C could not be calculated (i.e., triglycerides >400 mg/dL), beta-quantification measurements were used to determine LDL-C values. Least-squares (LS) means and standard errors were obtained for each treatment group; differences in LS means and p-values were obtained for the treatment comparisons. Graphical methods (e.g., normal probability plot and histogram of residuals, plot of residuals vs. predicted values) or analytical methods (e.g., Shapiro-Wilk test), or both, were used to assess the model assumptions. Because of departures from normality observed in the parameters of triglycerides, CRP, and VLDL particle number, nonparametric analyses were performed for these measures, with p-values obtained from the Wilcoxon rank-sum test and median values presented.
Percent changes from baseline in LDL-C also were summarized by statin-tolerance subgroup. To assess the dose-response relationship for ETC-1002 monotherapy, the primary analysis of covariance model was used for the comparison of the ETC-1002 120 mg and ETC-1002 180 mg. Statistical testing of the efficacy endpoints was 2-sided and conducted at the 5% level of significance with no adjustment for multiple comparisons.

[2] = tested on: hypercholesterolemic patients; test: Phase 2b double-blind trial: safety, treatment-emergent adverse events and laboratory abnormalities; details: for Most common AEs: ALT increased / Most common AEs: AST increased / Most common AEs: Arthralgia / Most common AEs: Back pain / Most common AEs: Blood CK increased / Most common AEs: Constipation / Most common AEs: Headache / Most common AEs: Myalgia / Most common AEs: Nasopharyngitis / Most common AEs: Upper respiratory tract infection / Most common AEs: Urinary tract infection / Treatment-emergent AEs: Any AE(s) / Treatment-emergent AEs: Discontinuation due to AE(s) / Treatment-emergent AEs: Serious AE(s) / Treatment-emergent AEs: Study drug-related AE(s) / Any muscle-related AE / Muscle-related AE leading to discontinuation / Muscle-related AEs: Muscle spasms / Muscle-related AEs: Muscular weakness / Muscle-related AEs: Musculoskeletal chest pain / Muscle-related AEs: Musculoskeletal stiffness / Muscle-related AEs: Myalgia / Muscle-related AEs: Pain in extremity / Muscle-related AEs: Sensation of heaviness / Muscle-related AEs: Musculoskeletal pain: 12 weeks; for Most common AEs: ALT increased / Most common AEs: AST increased / Most common AEs: Arthralgia / Most common AEs: Back pain / Most common AEs: Blood CK increased / Most common AEs: Constipation / Most common AEs: Headache / Most common AEs: Myalgia / Most common AEs: Nasopharyngitis / Most common AEs: Upper respiratory tract infection / Most common AEs: Urinary tract infection / Treatment-emergent AEs: Any AE(s) / Treatment-emergent AEs: Discontinuation due to AE(s) / Treatment-emergent AEs: Serious AE(s) / Treatment-emergent AEs: Study drug-related AE(s): safety population; for Myalgia, patients affected: entire study population
Procedure: The study population included both statin-tolerant and statin-intolerant participants. Statin intolerance was defined as the inability to tolerate ≥2 statins because of muscle-related symptoms such as pain, weakness, or cramping that began or increased during statin therapy and resolved on statin discontinuation. At least 1 statin must have been administered at the lowest approved daily dose, defined as rosuvastatin 5 mg, atorvastatin 10 mg, simvastatin 10 mg, lovastatin 20 mg, pravastatin 40 mg, fluvastatin 40 mg, or pitavastatin 2 mg. Treatment with less than the lowest approved daily dose of a statin (i.e., skipping days) was considered equivalent to not tolerating 1 statin at the lowest approved daily dose.
Patients underwent a 5-week washout of all lipid-regulating drugs and dietary supplements and abstained from these drugs and supplements throughout the study. Patients also underwent a 5-week patient-only-blinded placebo run-in during the screening period (week −5 to week 0). This single-blind placebo run-in period was used to eliminate patients with muscle-related AEs during placebo treatment. Patients reporting new or worsening, unexplained muscle-related AEs during this run-in period were excluded from the study.
Patients were stratified (1:1) by history of statin intolerance and randomized at week 0 in a 4:4:4:1:1 ratio to once-daily treatment with capsules containing ETC-1002 120 mg, ETC-1002 180 mg, EZE, ETC-1002 120 mg plus EZE, or ETC-1002 180 mg plus EZE.
The safety of ETC-1002 was assessed using treatment-emergent AEs; hematology, serum chemistry, and urinalysis laboratory values; physical examination findings, vital sign measurements, electrocardiogram (ECG) readings; weight; and ankle and waist circumference measurements. AEs were coded using the Medical Dictionary for Regulatory Activities version 16.0 and evaluated by the investigator for severity and relation to study drug. Muscle-related AEs were defined as those from the system organ class of musculoskeletal and connective tissue disorders, except for those that were not obviously muscle related Terms included in the muscle-related AFE analysis were selected from this system organ class after database lock and before unblinding.
Safety analyses were performed on the safety population, which included randomized patients who received at least 1 dose of study drug. Baseline patient characteristics were summarized for the safety population by treatment group and statin-tolerance subgroup.
Muscle-related AEs also were summarized by statin-tolerance subgroup.

[3] = ETC-1002 120 mg once daily, statin-intolerant patients
[4] = ETC-1002 120 mg once daily, statin-tolerant patients
[5] = ETC-1002 180 mg once daily, statin-intolerant patients
[6] = ETC-1002 180 mg once daily, statin-tolerant patients

CC(C)(CCCCCC(O)CCCCCC(C)(C)C(=O)O)C(=O)O [ETC-1002, 8-hydroxy-2,2,14,14 tetramethylpentadecanedioic acid]
Decrease in median CRP from baseline to week 12 endpoint ([1]; ETC-1002 120 mg): 30% | LDL-C reduction from baseline to week 12 ([1]; ETC-1002 120 mg alone): 27% | Percent change from baseline to week 12 in Apolipoprotein A-I ([1]; ETC-1002 120 mg once daily): −0.2 ± 1.1% | Percent change from baseline to week 12 in Apolipoprotein B ([1]; ETC-1002 120 mg once daily): −19.3 ± 1.3 % | Percent change from baseline to week 12 in HDL particle number ([1]; ETC-1002 120 mg once daily): 5.0 ± 1.3% | Percent change from baseline to week 12 in HDL-C ([1]; ETC-1002 120 mg once daily): −5.8 ± 1.4 % | Percent change from baseline to week 12 in LDL particle number ([1]; ETC-1002 120 mg once daily): −21.8 ± 1.7 % | Percent change from baseline to week 12 in LDL-C ([1]; ETC-1002 120 mg once daily): −27.5 ± 1.3 % | Percent change from baseline to week 12 in Non-HDL-C ([1]; ETC-1002 120 mg once daily): −23.2 ± 1.2 % | Percent change from baseline to week 12 in Total cholesterol ([1]; ETC-1002 120 mg once daily): −19.3 ± 0.9 % | Percent change from baseline to week 12 in VLDL particle number ([1]; ETC-1002 120 mg once daily): −2.7 (68.5) % | Decrease in median CRP from baseline to week 12 endpoint ([1]; ETC-1002 180 mg): 40% | LDL-C reduction from baseline to week 12 ([1]; ETC-1002 180 mg alone): 30% | Percent change from baseline to week 12 in Apolipoprotein A-I ([1]; ETC-1002 180 mg once daily): 0.1 ± 1.2% | Percent change from baseline to week 12 in Apolipoprotein B ([1]; ETC-1002 180 mg once daily): −21.3 ± 1.3 % | Percent change from baseline to week 12 in HDL particle number ([1]; ETC-1002 180 mg once daily): 6.2 ± 1.4% | Percent change from baseline to week 12 in HDL-C ([1]; ETC-1002 180 mg once daily): −4.8 ± 1.4 % | Percent change from baseline to week 12 in LDL particle number ([1]; ETC-1002 180 mg once daily): −24.6 ± 1.8 % | Percent change from baseline to week 12 in LDL-C ([1]; ETC-1002 180 mg once daily): −30.1 ± 1.3 % | Percent change from baseline to week 12 in Non-HDL-C ([1]; ETC-1002 180 mg once daily): −25.3 ± 1.1 % | Percent change from baseline to week 12 in Total cholesterol ([1]; ETC-1002 180 mg once daily): −20.7 ± 0.9 % | Percent change from baseline to week 12 in VLDL particle number ([1]; ETC-1002 180 mg once daily): 15.3 (80.5) % | LDL-C reduction from baseline to week 12 ([1]; ETC-1002 alone (120 mg or 180 mg), up to): up to 30% | Alanine aminotransferase or aspartate aminotransferase, or both, increased >3 times the upper limit of normal at any measurement ([2]; ETC-1002 120 mg): 1 patients | Serious AEs reported (events) ([2]; ETC-1002 120 mg): hemothorax; also recorded: sudden death | Most common AEs: ALT increased ([2]; ETC-1002 120 mg once daily): 0 n (%) | Most common AEs: AST increased ([2]; ETC-1002 120 mg once daily): 0 n (%) | Most common AEs: Arthralgia ([2]; ETC-1002 120 mg once daily): 4 (4%) n (%) | Most common AEs: Back pain ([2]; ETC-1002 120 mg once daily): 1 (1%) n (%) | Most common AEs: Blood CK increased ([2]; ETC-1002 120 mg once daily): 1 (1%) n (%) | Most common AEs: Constipation ([2]; ETC-1002 120 mg once daily): 3 (3%) n (%) | Most common AEs: Headache ([2]; ETC-1002 120 mg once daily): 3 (3%) n (%) | Most common AEs: Myalgia ([2]; ETC-1002 120 mg once daily): 3 (3%) n (%) | Most common AEs: Nasopharyngitis ([2]; ETC-1002 120 mg once daily): 3 (3%) n (%) | Most common AEs: Upper respiratory tract infection ([2]; ETC-1002 120 mg once daily): 6 (6%) n (%) | Most common AEs: Urinary tract infection ([2]; ETC-1002 120 mg once daily): 0 n (%) | Treatment-emergent AEs: Any AE(s) ([2]; ETC-1002 120 mg once daily): 50 (51%) n (%) | Treatment-emergent AEs: Discontinuation due to AE(s) ([2]; ETC-1002 120 mg once daily): 3 (3%) n (%) | Treatment-emergent AEs: Serious AE(s) ([2]; ETC-1002 120 mg once daily): 2 (2%) n (%) | Treatment-emergent AEs: Study drug-related AE(s) ([2]; ETC-1002 120 mg once daily): 13 (13%) n (%) | Any muscle-related AE [2, 3]: 7 (14%) n (%) | Muscle-related AE leading to discontinuation [2, 3]: 1 (2%) n (%) | Muscle-related AEs: Muscle spasms [2, 3]: 3 (6%) n (%) | Muscle-related AEs: Muscular weakness [2, 3]: 2 (4%) n (%) | Muscle-related AEs: Musculoskeletal chest pain [2, 3]: 0 n (%) | Muscle-related AEs: Musculoskeletal stiffness [2, 3]: 0 n (%) | Muscle-related AEs: Myalgia [2, 3]: 2 (4%) n (%) | Muscle-related AEs: Pain in extremity [2, 3]: 1 (2%) n (%) | Muscle-related AEs: Sensation of heaviness [2, 3]: 0 n (%) | Any muscle-related AE [2, 4]: 1 (2%) n (%) | Muscle-related AE leading to discontinuation [2, 4]: 0 n (%) | Muscle-related AEs: Muscle spasms [2, 4]: 0 n (%) | Muscle-related AEs: Musculoskeletal pain [2, 4]: 0 n (%) | Muscle-related AEs: Myalgia [2, 4]: 1 (2%) n (%) | Myalgia, patients affected ([2]; ETC-1002 120 mg): 3% | Alanine aminotransferase or aspartate aminotransferase, or both, increased >3 times the upper limit of normal at any measurement ([2]; ETC-1002 180 mg): 2 patients | Serious AEs reported (events) ([2]; ETC-1002 180 mg): pancreatitis relapse | Most common AEs: ALT increased ([2]; ETC-1002 180 mg once daily): 0 n (%) | Most common AEs: AST increased ([2]; ETC-1002 180 mg once daily): 0 n (%) | Most common AEs: Arthralgia ([2]; ETC-1002 180 mg once daily): 1 (1%) n (%) | Most common AEs: Back pain ([2]; ETC-1002 180 mg once daily): 1 (1%) n (%) | Most common AEs: Blood CK increased ([2]; ETC-1002 180 mg once daily): 4 (4%) n (%) | Most common AEs: Constipation ([2]; ETC-1002 180 mg once daily): 1 (1%) n (%) | Most common AEs: Headache ([2]; ETC-1002 180 mg once daily): 2 (2%) n (%) | Most common AEs: Myalgia ([2]; ETC-1002 180 mg once daily): 1 (1%) n (%) | Most common AEs: Nasopharyngitis ([2]; ETC-1002 180 mg once daily): 5 (5%) n (%) | Most common AEs: Upper respiratory tract infection ([2]; ETC-1002 180 mg once daily): 6 (6%) n (%) | Most common AEs: Urinary tract infection ([2]; ETC-1002 180 mg once daily): 4 (4%) n (%) | Treatment-emergent AEs: Any AE(s) ([2]; ETC-1002 180 mg once daily): 55 (55%) n (%) | Treatment-emergent AEs: Discontinuation due to AE(s) ([2]; ETC-1002 180 mg once daily): 6 (6%) n (%) | Treatment-emergent AEs: Serious AE(s) ([2]; ETC-1002 180 mg once daily): 1 (1%) n (%) | Treatment-emergent AEs: Study drug-related AE(s) ([2]; ETC-1002 180 mg once daily): 18 (18%) n (%) | Any muscle-related AE [2, 5]: 6 (12%) n (%) | Muscle-related AE leading to discontinuation [2, 5]: 2 (4%) n (%) | Muscle-related AEs: Muscle spasms [2, 5]: 2 (4%) n (%) | Muscle-related AEs: Muscular weakness [2, 5]: 1 (2%) n (%) | Muscle-related AEs: Musculoskeletal chest pain [2, 5]: 1 (2%) n (%) | Muscle-related AEs: Musculoskeletal stiffness [2, 5]: 0 n (%) | Muscle-related AEs: Myalgia [2, 5]: 1 (2%) n (%) | Muscle-related AEs: Pain in extremity [2, 5]: 1 (2%) n (%) | Muscle-related AEs: Sensation of heaviness [2, 5]: 0 n (%) | Any muscle-related AE [2, 6]: 0 n (%) | Muscle-related AE leading to discontinuation [2, 6]: 0 n (%) | Muscle-related AEs: Muscle spasms [2, 6]: 0 n (%) | Muscle-related AEs: Musculoskeletal pain [2, 6]: 0 n (%) | Muscle-related AEs: Myalgia [2, 6]: 0 n (%) | Myalgia, patients affected ([2]; ETC-1002 180 mg): 1%
